Results taken from ChEMBL document CHEMBL3108728, “Anti-inflammatory activity of rhamnetin and a model of its binding to c-Jun NH2-terminal kinase 1 and p38 MAPK” (J Nat Prod, 2014).
Activity calls are given as the source filed them. The rule behind the calls is not given here.

How the values were obtained:
RAW264.7 [1] = test: Antiinflammatory activity against mouse RAW264.7 cells assessed as reduction of LPS-induced NO production at 20 uM after 24 hrs; assay type: functional; parameters: scale not given: the % may be the effect or the level left
HaCaT = test: Cytotoxicity against human HaCaT cells at 100 uM after 24 hrs by MTT assay relative to untreated control; assay type: cell-based
RAW264.7 [2] = test: Antiinflammatory activity against mouse RAW264.7 cells assessed as reduction of LPS-induced mMIP-2 level at 10 uM after 24 hrs by ELISA relative to untreated control; assay type: functional; parameters: scale not given: the % may be the effect or the level left
RAW264.7 [3] = test: Cytotoxicity against mouse RAW264.7 cells up to 12.5 uM after 24 hrs by MTT assay relative to untreated control; assay type: cell-based; conditions: raw264.7, 24 h
RAW264.7 [4] = test: Antiinflammatory activity against mouse RAW264.7 cells assessed as reduction of IFNgamma-induced NO production at 10 uM after 24 hrs; assay type: functional; parameters: scale not given: the % may be the effect or the level left
[5] = target: T1, Monocyte differentiation antigen CD14 (Mus musculus) (UniProt P10810); test: Inhibition of CD14 in mouse RAW264.7 cells at 20 uM by Western blotting analysis; assay type: cell-based
T1 sequence (whole entry): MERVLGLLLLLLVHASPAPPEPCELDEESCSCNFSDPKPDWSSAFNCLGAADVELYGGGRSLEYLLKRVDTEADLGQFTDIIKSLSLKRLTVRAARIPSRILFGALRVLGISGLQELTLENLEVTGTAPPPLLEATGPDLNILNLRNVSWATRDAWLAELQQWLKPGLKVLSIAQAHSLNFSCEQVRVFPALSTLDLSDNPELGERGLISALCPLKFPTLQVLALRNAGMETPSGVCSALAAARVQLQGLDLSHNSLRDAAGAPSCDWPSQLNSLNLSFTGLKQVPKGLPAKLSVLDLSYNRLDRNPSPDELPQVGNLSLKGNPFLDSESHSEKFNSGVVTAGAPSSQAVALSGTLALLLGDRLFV

[6] = target: T2, MAP kinase p38 (Homo sapiens) (UniProt O15264+Q15759+Q16539+P53778); test: Binding affinity to human p38 MAPK expressed in Escherichia coli by spectrofluorometry
[7] = target: Mitogen-activated protein kinase 8 (Homo sapiens) (UniProt P45983); test: Binding affinity to human C-terminal His6-tagged JNK1alpha1 (1 to 364) expressed in Escherichia coli by circular dichroism method
Sequence of Mitogen-activated protein kinase 8 (Homo sapiens) (P45983 whole entry): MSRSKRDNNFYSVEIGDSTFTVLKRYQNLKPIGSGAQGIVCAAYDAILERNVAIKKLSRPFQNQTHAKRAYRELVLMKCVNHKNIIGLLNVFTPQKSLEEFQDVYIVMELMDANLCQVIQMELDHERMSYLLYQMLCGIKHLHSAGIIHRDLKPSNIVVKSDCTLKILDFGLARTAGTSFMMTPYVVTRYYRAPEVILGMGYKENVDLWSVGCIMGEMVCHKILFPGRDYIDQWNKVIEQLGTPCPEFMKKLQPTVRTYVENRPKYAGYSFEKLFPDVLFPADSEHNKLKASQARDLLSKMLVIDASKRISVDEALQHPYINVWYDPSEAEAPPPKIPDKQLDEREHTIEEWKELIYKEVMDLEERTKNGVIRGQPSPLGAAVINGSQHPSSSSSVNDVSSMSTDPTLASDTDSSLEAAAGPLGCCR

[8] = target: Mitogen-activated protein kinase 8 (Mus musculus) (UniProt Q91Y86); test: Inhibition of LPS-induced JNK phosphorylation in mouse RAW264.7 cells at 20 uM by Western blotting analysis; assay type: cell-based
Sequence of Mitogen-activated protein kinase 8 (Mus musculus) (Q91Y86 whole entry): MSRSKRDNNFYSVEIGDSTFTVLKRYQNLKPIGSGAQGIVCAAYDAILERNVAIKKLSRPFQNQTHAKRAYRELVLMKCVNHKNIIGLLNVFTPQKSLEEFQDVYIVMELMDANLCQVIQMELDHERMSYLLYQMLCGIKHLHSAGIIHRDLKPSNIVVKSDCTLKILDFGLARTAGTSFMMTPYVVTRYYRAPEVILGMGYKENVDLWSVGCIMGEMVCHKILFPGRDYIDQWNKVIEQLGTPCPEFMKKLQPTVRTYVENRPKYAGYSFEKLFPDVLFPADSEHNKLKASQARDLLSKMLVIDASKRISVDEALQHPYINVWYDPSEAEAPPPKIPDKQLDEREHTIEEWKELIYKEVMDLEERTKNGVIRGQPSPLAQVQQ

[9] = target: Mitogen-activated protein kinase 3 (Mus musculus) (UniProt Q63844); test: Inhibition of IFNgamma-induced ERK phosphorylation in mouse RAW264.7 cells at 20 uM by Western blotting analysis relative to untreated control; assay type: cell-based
Sequence of Mitogen-activated protein kinase 3 (Mus musculus) (Q63844 whole entry): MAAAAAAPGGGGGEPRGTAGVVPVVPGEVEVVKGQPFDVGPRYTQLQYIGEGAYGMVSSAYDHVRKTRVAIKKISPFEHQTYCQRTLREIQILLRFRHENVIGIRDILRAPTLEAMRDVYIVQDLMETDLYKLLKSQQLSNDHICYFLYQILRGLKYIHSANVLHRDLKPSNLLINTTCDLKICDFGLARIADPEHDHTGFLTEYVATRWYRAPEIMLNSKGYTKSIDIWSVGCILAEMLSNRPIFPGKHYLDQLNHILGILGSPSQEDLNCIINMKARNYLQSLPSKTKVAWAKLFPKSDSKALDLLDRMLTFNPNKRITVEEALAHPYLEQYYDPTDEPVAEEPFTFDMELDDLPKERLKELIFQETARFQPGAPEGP

[10] = target: T3, MAP kinase p38 (Mus musculus) (UniProt P47811+O08911+Q9WUI1+Q9Z1B7); test: Inhibition of IFNgamma-induced p38 MAPK phosphorylation in mouse RAW264.7 cells at 20 uM by Western blotting analysis relative to untreated control; assay type: cell-based
[11] = target: T3, MAP kinase p38 (Mus musculus); test: Inhibition of LPS-induced p38 MAPK phosphorylation in mouse RAW264.7 cells at 20 uM by Western blotting analysis; assay type: cell-based
[12] = Cytotoxicity against mouse RAW264.7 cells assessed as cell survival at 100 uM after 24 hrs by MTT assay relative to untreated control; assay type: cell-based; conditions: read-out: Survival
RAW264.7 [13] = test: Antiinflammatory activity against mouse RAW264.7 cells assessed as reduction of LPS-induced mMIP-2 level at 20 uM after 24 hrs by ELISA relative to untreated control; assay type: functional; parameters: scale not given: the % may be the effect or the level left
[14] = target: Mitogen-activated protein kinase 8 (Homo sapiens) (UniProt P45983); test: Binding affinity to human C-terminal His6-tagged JNK1alpha1 (1 to 364) expressed in Escherichia coli by spectrofluorometry
RAW264.7 [15] = test: Antiinflammatory activity against mouse RAW264.7 cells assessed as reduction of IFNgamma-induced NO production at 20 uM after 24 hrs; assay type: functional; parameters: scale not given: the % may be the effect or the level left
RAW264.7 [16] = test: Antiinflammatory activity against mouse RAW264.7 cells assessed as reduction of LPS-induced mMIP-1 mRNA expression at 25 uM after 3 hrs by RT-PCR analysis relative to untreated control; assay type: functional; parameters: scale not given: the % may be the effect or the level left
RAW264.7 [17] = test: Antiinflammatory activity against mouse RAW264.7 cells assessed as reduction of LPS-induced NO production at 10 uM after 24 hrs; assay type: functional; parameters: scale not given: the % may be the effect or the level left
[18] = target: T2, MAP kinase p38 (Homo sapiens); test: Binding affinity to human p38 MAPK expressed in Escherichia coli by circular dichroism method
RAW264.7 [19] = test: Antiinflammatory activity against mouse RAW264.7 cells assessed as inhibition of LPS-induced COX2 protein expression at 20 uM by Western blotting analysis; assay type: functional
RAW264.7 [20] = test: Antiinflammatory activity against mouse RAW264.7 cells assessed as reduction of LPS-induced mTNFalpha mRNA expression at 25 uM after 3 hrs by RT-PCR analysis relative to untreated control; assay type: functional, cell-based
[21] = target: Mitogen-activated protein kinase 8 (Mus musculus) (UniProt Q91Y86); test: Inhibition of IFNgamma-induced JNK phosphorylation in mouse RAW264.7 cells at 20 uM by Western blotting analysis relative to untreated control; assay type: cell-based
RAW264.7 [22] = test: Antiinflammatory activity against mouse RAW264.7 cells assessed as reduction of LPS-induced mMIP-2 mRNA expression at 25 uM after 3 hrs by RT-PCR analysis relative to untreated control; assay type: functional, cell-based
[23] = target: Mitogen-activated protein kinase 3 (Mus musculus) (UniProt Q63844); test: Inhibition of LPS-induced ERK phosphorylation in mouse RAW264.7 cells at 20 uM by Western blotting analysis; assay type: cell-based
RAW264.7 [24] = test: Antiinflammatory activity against mouse RAW264.7 cells assessed as inhibition of LPS-induced TNFalpha production at 10 uM after 24 hrs by ELISA; assay type: functional; conditions: RAW264.7, 24 h
RAW264.7 [25] = test: Antiinflammatory activity against mouse RAW264.7 cells assessed as inhibition of LPS-induced TNFalpha production at 20 uM after 24 hrs by ELISA; assay type: functional; conditions: RAW264.7, 24 h

In the case of `COc1cc(O)c2c(=O)c(O)c(-c3ccc(O)c(O)c3)oc2c1` [RHAMNETIN], the Activity (RAW264.7 [1]) is reported as 74%, the Activity (HaCaT) is reported as “Non-toxic” and the Activity (RAW264.7 [2]) is reported as 42%. The Activity (RAW264.7 [3]) was “Non-toxic”, the Activity (RAW264.7 [4]) was 73.2% and the inhibition [5] was “inactive”. The K [6] was 2.31 ×10⁷ /M, the Activity [7] was “Active” and the inhibition [8] was 64%. It also gave an inhibition [9] of 38%, an inhibition [10] of 58% and an inhibition [11] of 51%. For the same compound, the viability at 24 h, 100 µM [12] was greater than 55%, the Activity (RAW264.7 [13]) was 77% and the K [14] was 9.7 ×10⁸ /M. It also gave an Activity (RAW264.7 [15]) of 91.5%, an Activity (RAW264.7 [16]) of 96.2% and an Activity (RAW264.7 [17]) of 62%. For the same compound, the Activity [18] was “Active”, the inhibition at 20 µM (RAW264.7 [19]) was 76% and the Activity (RAW264.7 [20]) was “Active”. For the same compound, the inhibition [21] was 92%, the Activity (RAW264.7 [22]) was “Active” and the inhibition [23] was 27%. The inhibition at 10 µM (RAW264.7 [24]) was 54% and the inhibition at 20 µM (RAW264.7 [25]) was 63%.
